Results from paper PMC11547576, “Identification of a New Promising BAG3 Modulator Featuring the Imidazopyridine Scaffold” (Molecules, 2024).

System: HaCat cells
Test: MTT cell viability assay on HaCat healthy cells
Type: cell-based
Details: Homo sapiens, 72 h, seven concentrations (1 to 100 μM)
Experimental: Elevated expression levels of BAG3 are strongly associated with signaling pathways in various types of malignant cells; consequently, reducing the activity of this co-chaperone inhibits cell proliferation, triggers apoptosis, and induces cell cycle arrest. To assess the activity of compounds 10, 12, and 14, cytotoxicity assays were performed on HeLa cells, which were chosen for their tendency to overexpress BAG3 proteins. MTT assays were conducted by exposing HeLa cells to different concentrations of the compounds (25, 50, and 100 µM) for 72 h. Additionally, 10% DMSO was used as a positive control, while 0.1% DMSO served as a negative control. […] The next step involved the assessment of the cytotoxicity of the most promising candidate, 10, on healthy cells to determine its safety profile. To achieve this, MTT assays were conducted on HaCat cells over 72 h. […]
Cell viability was assessed by measuring mitochondrial metabolic activity using a colorimetric assay, which involves the reduction of 3-[4,5-dimethylthiazol-2,5-diphenyl-2H-tetrazolium bromide (MTT) to purple formazan. […] Absorbance was measured at 570 nm using a Multiskan™ GO Microplate Spectrophotometer (Thermo Fisher Scientific, Waltham, MA, USA,). […]

CC(C)Nc1c(-c2ccccc2Br)nc2ccc(Cl)cn12 [Compound 10, 2-(2-bromophenyl)-6-chloro-N-isopropylimidazo[1,2-a]pyridin-3-amine]
IC50: 81.3 ± 4.83 µM
